The source of these data is patent US20260132158A1, “PHENYL OXY AMIDE KINASE INHIBITORS” (THE TRANSLATIONAL GENOMICS RESEARCH INSTITUTE, priority 2022, published 2026).

This test concerns the target T1, RON Kinase (Homo sapiens, UniProt Q04912).
T1 construct: purchased Promega V8071
Put plainly: RON Kinase ADP Glo Assay. To be noted: ratio cMET IC50 / RON IC50. It is filed as biochemical. The method, then: RON Kinase ADP Glo Assay • Assay Buffer: 40 mM Tris-HCl, pH7.5, 20 mM MgCl2, 0.1 mg/mL BSA • RON Kinase+ADP-Glo™ Assay (Promega #: V8071) • Substrate: […] Axltide • Enzyme: 100 ng/μL RON Kinase • ATP: 10 mM • ADP-Glo™ Reagent • Kinase Detection Reagent • 384-well white assay plates Kinase assay was done by following instructions from the kit. Briefly, a ten-point serial dilution of compound was prepared at 5× in assay buffer with the final assay concentrations starting at 300 nM, 100 nM, 30 nM, 10 nM . . . 0 nM. Enzyme, substrate, and ATP were used at 25 ng, 2000 ng, and 25 µM, respectively. The assay plate was set up by mixing the components in a total reaction volume of 10 μL per well. The plate was centrifuged gently for 10 seconds and incubated at room temperature (RT) for 60 minutes in the dark. The ADP-Glo Reagent and kinase detection reagent were added and incubated as recommended. The reaction was quantified by measuring luminescence on the Perkin Elmer Envision plate reader.
A general note: ADP-Glo first removes unused ATP, then detects ADP through luciferase.

T1 sequence (Q04912 25-1400): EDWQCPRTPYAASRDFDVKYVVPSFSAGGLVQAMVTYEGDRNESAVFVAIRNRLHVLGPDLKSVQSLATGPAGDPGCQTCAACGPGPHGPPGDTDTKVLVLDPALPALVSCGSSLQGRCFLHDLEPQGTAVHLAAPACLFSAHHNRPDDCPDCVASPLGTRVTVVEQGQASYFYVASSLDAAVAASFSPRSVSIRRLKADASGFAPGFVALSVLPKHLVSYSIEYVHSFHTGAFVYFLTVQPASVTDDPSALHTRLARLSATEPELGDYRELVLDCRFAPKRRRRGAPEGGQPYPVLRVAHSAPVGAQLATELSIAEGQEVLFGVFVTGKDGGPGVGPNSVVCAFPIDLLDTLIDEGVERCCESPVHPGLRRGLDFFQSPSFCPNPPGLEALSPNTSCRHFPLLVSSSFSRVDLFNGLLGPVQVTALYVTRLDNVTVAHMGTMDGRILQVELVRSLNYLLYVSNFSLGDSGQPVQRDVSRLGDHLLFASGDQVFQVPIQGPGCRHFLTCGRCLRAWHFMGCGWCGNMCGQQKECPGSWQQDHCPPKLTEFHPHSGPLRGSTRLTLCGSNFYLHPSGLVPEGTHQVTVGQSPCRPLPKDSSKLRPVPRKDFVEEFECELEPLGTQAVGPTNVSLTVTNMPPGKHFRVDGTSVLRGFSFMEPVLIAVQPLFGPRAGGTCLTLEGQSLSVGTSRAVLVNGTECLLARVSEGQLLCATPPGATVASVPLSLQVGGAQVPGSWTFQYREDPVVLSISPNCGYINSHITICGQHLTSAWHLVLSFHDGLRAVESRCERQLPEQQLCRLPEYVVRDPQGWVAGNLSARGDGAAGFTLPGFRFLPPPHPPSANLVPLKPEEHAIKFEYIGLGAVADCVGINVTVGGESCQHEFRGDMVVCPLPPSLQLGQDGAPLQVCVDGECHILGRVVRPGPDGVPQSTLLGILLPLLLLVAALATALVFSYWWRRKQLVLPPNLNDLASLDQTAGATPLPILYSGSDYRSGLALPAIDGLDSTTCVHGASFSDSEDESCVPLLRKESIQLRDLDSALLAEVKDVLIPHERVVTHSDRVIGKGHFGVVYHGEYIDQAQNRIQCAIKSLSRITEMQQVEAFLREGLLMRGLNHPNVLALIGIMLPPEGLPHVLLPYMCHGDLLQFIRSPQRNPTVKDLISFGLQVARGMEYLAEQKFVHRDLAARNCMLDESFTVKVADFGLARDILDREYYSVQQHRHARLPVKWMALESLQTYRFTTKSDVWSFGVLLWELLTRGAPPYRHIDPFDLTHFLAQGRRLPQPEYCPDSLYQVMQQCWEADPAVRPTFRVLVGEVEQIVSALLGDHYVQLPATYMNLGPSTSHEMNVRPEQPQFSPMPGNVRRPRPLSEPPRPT

`Cn1cnc(-c2cc3ncnc(Oc4ccc(NC(=O)c5cnn(-c6ccc(F)cc6)c5C(F)(F)F)cc4F)c3s2)c1` [Compound 2, N-(3-fluoro-4-((6-(1-methyl-1H-imidazol-4-yl)thieno[3,2-d]pyrimidin-4-yl)oxy)phenyl)-1-(4-fluorophenyl)-5-(trifluoromethyl)-1H-pyrazole-4-carboxamide]: the “Fold Selectivity (cMET/RON)” value was “+++ (represents a value greater than 3 up to 50)”.

For the molecule `CC(C)Oc1cccc(Nc2nccc(Oc3ccc(NC(=O)c4cnn(-c5ccc(F)cc5)c4C(F)(F)F)cc3F)n2)c1` [Compound 35, N-(3-fluoro-4-((2-((3-isopropoxyphenyl)amino)pyrimidin-4-yl)oxy)phenyl)-1-(4-fluorophenyl)-5-(trifluoromethyl)-1H-pyrazole-4-carboxamide], the “Fold Selectivity (cMET/RON)” value is “+++ (represents a value greater than 3 up to 50)”.

`CCOc1ccn(-c2ccc(F)cc2)c(=O)c1C(=O)Nc1ccc(Oc2ccnc(N)c2P(C)(C)=O)c(F)c1` [Compound 58, N-{4-[2-amino-3-(dimethylphosphoryl)-4-pyridyloxy]-3-fluorophenyl}-4-ethoxy-1-(4-fluorophenyl)-2-oxo-1,2-dihydronicotinamide]: the “Fold Selectivity (cMET/RON)” value was “+ (represents a value below 0.5)”.

Regarding `C=CC(=O)NC1CCCC(Nc2nccc(Oc3ccc(NC(=O)c4cnn(-c5ccc(F)cc5)c4C(F)(F)F)cc3F)n2)C1` (single isomer, unassigned) [44 (peak 2), N-(4-((2-((3-acrylamidocyclohexyl)amino)pyrimidin-4-yl)oxy)-3-fluorophenyl)-1-(4-fluorophenyl)-5-(trifluoromethyl)-1H-pyrazole-4-carboxamide], the “Fold Selectivity (cMET/RON)” value was “+++ (represents a value greater than 3 up to 50)”.

Take `Cn1cc(-c2c(Oc3ccc(NC(=O)c4cc(-c5ccc(F)cc5)no4)cc3F)ccnc2N)cn1` [Compound 21, N-(4-((2-amino-3-(1-methyl-1H-pyrazol-4-yl)pyridin-4-yl)oxy)-3-fluorophenyl)-3-(4-fluorophenyl)isoxazole-5-carboxamide]: the “Fold Selectivity (cMET/RON)” value was “+ (represents a value below 0.5)”.

On to `CP(C)(=O)c1cccc(Nc2nccc(Oc3ccc(NC(=O)c4cnn(-c5ccc(F)cc5)c4C(F)(F)F)cc3F)n2)c1` [Compound 26, N-(4-((2-((3-(dimethylphosphoryl)phenyl)amino)pyrimidin-4-yl)oxy)-3-fluorophenyl)-1-(4-fluorophenyl)-5-(trifluoromethyl)-1H-pyrazole-4-carboxamide], for which the “Fold Selectivity (cMET/RON)” value is “+++ (represents a value greater than 3 up to 50)”.

For `COc1cc(Nc2nccc(Oc3ccc(NC(=O)c4cnn(-c5ccc(F)cc5)c4C(F)(F)F)cc3F)n2)cc(OC)c1` [Compound 24, N-(4-((2-((3,5-dimethoxyphenyl)amino)pyrimidin-4-yl)oxy)-3-fluorophenyl)-1-(4-fluorophenyl)-5-(trifluoromethyl)-1H-pyrazole-4-carboxamide], the “Fold Selectivity (cMET/RON)” value is listed as “+++ (represents a value greater than 3 up to 50)”.
